SMILES strings stand for the structures. Values after ≈ are worked out from the molar mass of the structure shown.

Data set [1] has as its system Mycobacterium tuberculosis. In words: Antimycobacterial activity against Mycobacterium tuberculosis H37Rv. It counts as functional.
Data set [2] can be described thus: Renal clearance in human. The class given is ADME, organism-based, Kidney. To be noted: in vivo, read-out: CL_renal.
A short description of data set [3]: Elimination half life in human. The class given is ADME, organism-based. The conditions noted are these: in vivo.
Data set [4] can be described thus: Drug level in human urine. The conditions noted are these: read-out: Drug uptake. It counts as ADME, tissue-based.
A further data set concerns Plasma. In words: Plasma concentration in human at 600 mg, po bid. It counts as ADME, organism-based. The conditions noted are these: in vivo.
Data set [5] is described as follows: Drug level in human lung epithelial lining fluid at 600 mg, po bid after 4 hrs. It counts as ADME, organism-based. The conditions noted are these: read-out: Drug uptake.
For data set [6], the system named is Canis familiaris. In words: Toxicity in dog at 40 mg/kg, po for 30 days. It counts as organism-based, Canis lupus familiaris. Further details: dose 40 mg/kg, route oral. The conditions noted are these: in vivo, 720 h.
For data set [7], the system named is Rattus norvegicus. Put plainly: Toxicity in rat at 20 mg/kg for 30 days. The class given is organism-based. Further details: dose 20 mg/kg. The conditions noted are these: in vivo, 720 h.
The species named for another data set is Homo sapiens. Put plainly: Nonrenal clearance in human. To be noted: in vivo. The class given is ADME, organism-based.
For data set [8], the target named is T1, Amine oxidase [flavin-containing] A (Homo sapiens, UniProt P21397).
T1 sequence (P21397 whole entry): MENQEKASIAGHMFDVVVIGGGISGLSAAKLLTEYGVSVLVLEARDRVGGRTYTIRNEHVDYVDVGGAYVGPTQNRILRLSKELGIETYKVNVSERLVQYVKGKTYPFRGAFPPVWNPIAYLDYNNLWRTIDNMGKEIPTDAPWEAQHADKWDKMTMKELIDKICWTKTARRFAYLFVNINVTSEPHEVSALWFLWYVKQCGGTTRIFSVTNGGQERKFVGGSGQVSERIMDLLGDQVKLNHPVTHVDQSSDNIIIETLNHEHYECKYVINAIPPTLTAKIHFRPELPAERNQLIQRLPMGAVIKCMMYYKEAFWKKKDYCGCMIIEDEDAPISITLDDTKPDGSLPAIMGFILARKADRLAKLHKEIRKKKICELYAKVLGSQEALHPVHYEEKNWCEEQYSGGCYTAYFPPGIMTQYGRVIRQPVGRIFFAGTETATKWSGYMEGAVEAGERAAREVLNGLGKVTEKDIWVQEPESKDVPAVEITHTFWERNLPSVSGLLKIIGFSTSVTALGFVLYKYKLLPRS
Put plainly: Inhibition of monoamine oxidase A.

The next data set concerns Staphylococcus aureus. In words: Protection against methicillin-resistant Staphylococcus aureus infection in pneumonia patient. It counts as functional.
A further data set concerns Enterococcus. In words: Protection against vancomycin-resistant Enterococcus infection in pneumonia patient. The class given is functional.
Data set [9] deals with Rattus norvegicus. Put plainly: Toxicity in rat at 50 mg/kg, po for 30 days. It counts as organism-based. Further details: dose 50 mg/kg, route oral. To be noted: in vivo, 720 h.
The test system of data set [10] is Canis familiaris. Put plainly: Toxicity in dog at 20 mg/kg for 30 days. It counts as organism-based, Canis lupus familiaris. On the set-up: dose 20 mg/kg. The conditions noted are these: in vivo, 720 h.
A short description of data set [11]: Total clearance in human. To be noted: in vivo. The class given is ADME, organism-based.
A short description of data set [12]: Aqueous solubility of the compound. It counts as physicochemical.
For data set [13], the system named is Canis familiaris. In words: Toxicity in dog at 25 mg/kg for 30 days. The class given is organism-based, Canis lupus familiaris. On the set-up: dose 25 mg/kg. To be noted: in vivo, 720 h.
Data set [14] can be described thus: Oral bioavailability in dog at 25 mg/kg. The class given is ADME, organism-based, Canis lupus familiaris. The conditions noted are these: in vivo.
Data set [15] relates to Rattus norvegicus. Put plainly: Toxicity in rat at 25 mg/kg for 30 days. It counts as organism-based. Further details: dose 25 mg/kg. To be noted: in vivo, 720 h.

The term MIC denotes the lowest concentration found to suppress growth. Consider `NNC(=O)c1ccncc1` [ISONIAZID], for which, in data set [1], the minimum inhibitory concentration (MIC) was found to be 0.2 µg/mL (≈ 1.46 µM).
In general, half-life refers to how long it takes for the measured level to halve. Read a low half-life as rapid decline. One may read the Ki as a measure of affinity in units of concentration, obtained from inhibition or displacement. What is called clearance is the rate of elimination divided by the concentration. Low readings indicate a low capacity for elimination, high ones a high capacity for elimination. On to `CC(=O)NC[C@H]1CN(c2ccc(N3CCOCC3)c(F)c2)C(=O)O1` [LINEZOLID], for which, in [2], the CL renal was found to be 30 mL/min. The half-life in [3] is 5 h. In data set [4], the dose excreted is 20%. In the data set with Plasma, the Cp was found to be 7.3 µg/mL. Further, the concentration at 4 h in [5] was 64.3 µg/mL. The Activity result in the data set on Canis familiaris [6], in the data set with Rattus norvegicus [7], in the data set with Rattus norvegicus [9] and in the data set with Canis familiaris [10] was “Non-toxic” throughout. This molecule also had a CL in the data set listed under Homo sapiens of 70 mL/min. Also, the Ki in [8] turned out to be 55 µM. The Efficacy with Staphylococcus aureus came to 77%; in the data set with Enterococcus, 88%. Also, the clearance in data set [11] was 100 mL/min.
As to `CN[C@H](CC(C)C)C(=O)N[C@H]1C(=O)N[C@@H](CC(N)=O)C(=O)N[C@H]2C(=O)N[C@H]3C(=O)N[C@H](C(=O)N[C@H](C(=O)O)c4cc(O)cc(O)c4-c4cc3ccc4O)[C@H](O)c3ccc(c(Cl)c3)Oc3cc2cc(c3O[C@@H]2O[C@H](CO)[C@@H](O)[C@H](O)[C@H]2O[C@H]2C[C@](C)(N)[C@H](O)[C@H](C)O2)Oc2ccc(cc2Cl)[C@H]1O` [VANCOMYCIN], the Activity with Staphylococcus aureus came to 74%.
A word on the solubility: it is how much of the substance goes into solution per volume. The low end stands for little dissolved substance, the high end for much dissolved substance. For the molecule `CC(=O)NC[C@H]1CN(c2ccc(N3CCSCC3)c(F)c2)C(=O)O1` [SUTEZOLID], the solubility in data set [12] came to 200 µg/mL (≈ 566 µM). For the same molecule, the MIC in data set [1] was at most 0.125 µg/mL.
In general, bioavailability refers to dose-corrected exposure relative to a reference, in per cent. As for `CC(=O)NC[C@H]1CN(c2ccc(N3CCN(C(=O)CO)CC3)c(F)c2)C(=O)O1` [EPEREZOLID], the Activity entry with Canis familiaris [13] and with Rattus norvegicus [15] was “Non-toxic” in each case. This molecule gave a bioavailability in data set [14] of 100%.

The record behind these values is ChEMBL document CHEMBL1142432 (J Med Chem, 2008).
